How the values were obtained:
DNA = settings: mutation relative to canonical SpCas9, SEQ ID NO: 18; cited from earlier work
[1] = system: 5′-Cy5-labeled dsDNA substrates; assay: In vitro TPRT (prime editing) primer extension assay, denaturing urea PAGE; format: biochemical; settings: standard gRNA (gRNA_0, lane 3), substrates not pre-nicked
Method: All reactions are with M-MLV RT.
Fluorescently labeled (Cy5) DNA targets were used as substrates, and were pre-nicked in this set of experiments. […] Then, the fluorescently labeled DNA substrate was added along with dNTPs and the RT enzyme. After 1 hour of incubation at 37° C., the reaction products were analyzed by denaturing urea-polyacrylamide gel electrophoresis (PAGE).
However, the DNA substrates are not pre-nicked in this set of experiments. […] The reaction products were analyzed by denaturing urea-polyacrylamide gel electrophoresis (PAGE).
Reactions were incubated at 37° C. for 1 hour, then analyzed by denaturing urea PAGE and visualized for Cy5 fluorescence.
Reactions were allowed to proceed at 37° C. for 1 hour prior to separation by denaturing urea PAGE and visualization by Cy5 fluorescence.

Substance | Function/Characteristic (as reported) (DNA) | cleavage of the DNA strand by the nickase [1]
H840A: SpCas9 mutation relative to SEQ ID NO: 18 | Nickase mutant which cleaves the non-protospacer | 
D10A: SpCas9 mutation relative to SEQ ID NO: 18 | Nickase mutant which cleaves the protospacer | 
1099-1368 deletion: SpCas9 mutation relative to SEQ ID NO: 18 | No nuclease activity | 
Cas9 nickase: Cas9 nickase (SpyCas9 H840A mutant) |  | efficiently cleaves
